Assay results published in ChEMBL document CHEMBL3044818, “Fungicide resistance status in French populations of the wheat eyespot fungi Oculimacula acuformis and Oculimacula yallundae” (Pest Manag Sci, 2013).
≈ marks a conversion by molar mass, not a printed value.

System: Oculimacula yallundae
Assay: Resistance index, ratio of EC50 for prochloraz-resistant Oculimacula yallundae isolate ProR1 to EC50 for prochloraz-susceptible Oculimacula yallundae isolate ProS by germ tube elongation inhibition assay
Type: functional
Settings: not given

Row | Compound | Ratio EC50
1 | CCCOC/C(=N\c1ccc(Cl)cc1C(F)(F)F)n1ccnc1 [TRIFLUMIZOLE] | 0.1

System: Oculimacula yallundae
Assay: Fungicidal activity against prochloraz-susceptible Oculimacula yallundae isolate ProS assessed as inhibition of germ tube elongation incubated at 19 degC in dark for 48 hr
Type: functional, organism-based
Settings: not given

Row | Compound | EC50 [µg/mL]
2 | CCCOC/C(=N\c1ccc(Cl)cc1C(F)(F)F)n1ccnc1 [TRIFLUMIZOLE] | 9 (≈ 26 µM)

System: Oculimacula yallundae
Assay: Resistance index, ratio of EC50 for sterol 14alpha-demethylation inhibitor-resistant Oculimacula yallundae MDR to EC50 for sterol 14alpha-demethylation inhibitor-resistant Oculimacula yallundae TriR1 by germ tube elongation assay
Type: functional
Settings: not given

Row | Compound | Ratio EC50
3 | Cc1cc(C2CC2)nc(Nc2ccccc2)n1 [CYPRODINIL] | 13
4 | CC1=C(C(=O)Nc2ccccc2)SCCO1 [CARBOXIN] | 1.4
5 | Cc1cc(C)nc(Nc2ccccc2)n1 [PYRIMETHANIL] | 12
6 | CCCOC/C(=N\c1ccc(Cl)cc1C(F)(F)F)n1ccnc1 [TRIFLUMIZOLE] | 1.1
7 | CC(C)CC(C)c1sccc1NC(=O)c1cn(C)nc1C(F)(F)F (configuration not stated) [PENTHIOPYRAD] | 12
8 | Cc1cccc(N(C)C(=S)Oc2ccc3ccccc3c2)c1 [TOLNAFTATE] | >25

System: Oculimacula yallundae
Assay: Resistance index, ratio of EC50 for sterol 14alpha-demethylation inhibitor-resistant Oculimacula yallundae MDR to EC50 for wild type Oculimacula yallundae TriS by germ tube elongation assay
Type: functional
Settings: not given

Row | Compound | Ratio EC50
9 | Cc1cc(C2CC2)nc(Nc2ccccc2)n1 [CYPRODINIL] | 13
10 | CC1=C(C(=O)Nc2ccccc2)SCCO1 [CARBOXIN] | 1.4
11 | Cc1cc(C)nc(Nc2ccccc2)n1 [PYRIMETHANIL] | 12
12 | CCCOC/C(=N\c1ccc(Cl)cc1C(F)(F)F)n1ccnc1 [TRIFLUMIZOLE] | 243
13 | CC(C)CC(C)c1sccc1NC(=O)c1cn(C)nc1C(F)(F)F (configuration not stated) [PENTHIOPYRAD] | 12
14 | Cc1cccc(N(C)C(=S)Oc2ccc3ccccc3c2)c1 [TOLNAFTATE] | >30

System: Oculimacula yallundae
Assay: Resistance index, ratio of EC50 for sterol 14alpha-demethylation inhibitor-resistant Oculimacula yallundae TriR2 to EC50 for sterol 14alpha-demethylation inhibitor-resistant Oculimacula yallundae TriR1 by germ tube elongation assay
Type: functional
Settings: not given

Row | Compound | Ratio EC50
15 | Cc1cc(C2CC2)nc(Nc2ccccc2)n1 [CYPRODINIL] | 1
16 | CC1=C(C(=O)Nc2ccccc2)SCCO1 [CARBOXIN] | 1.2
17 | Cc1cc(C)nc(Nc2ccccc2)n1 [PYRIMETHANIL] | 1.2
18 | CCCOC/C(=N\c1ccc(Cl)cc1C(F)(F)F)n1ccnc1 [TRIFLUMIZOLE] | 0.3
19 | CC(C)CC(C)c1sccc1NC(=O)c1cn(C)nc1C(F)(F)F (configuration not stated) [PENTHIOPYRAD] | 1
20 | Cc1cccc(N(C)C(=S)Oc2ccc3ccccc3c2)c1 [TOLNAFTATE] | 0.8

System: Oculimacula yallundae
Assay: Resistance index, ratio of EC50 for sterol 14alpha-demethylation inhibitor-resistant Oculimacula yallundae TriR2 to EC50 for wild type Oculimacula yallundae TriS by germ tube elongation assay
Type: functional
Settings: not given

Row | Compound | Ratio EC50
21 | Cc1cc(C2CC2)nc(Nc2ccccc2)n1 [CYPRODINIL] | 1
22 | CC1=C(C(=O)Nc2ccccc2)SCCO1 [CARBOXIN] | 1.2
23 | Cc1cc(C)nc(Nc2ccccc2)n1 [PYRIMETHANIL] | 1.2
24 | CCCOC/C(=N\c1ccc(Cl)cc1C(F)(F)F)n1ccnc1 [TRIFLUMIZOLE] | 71
25 | CC(C)CC(C)c1sccc1NC(=O)c1cn(C)nc1C(F)(F)F (configuration not stated) [PENTHIOPYRAD] | 1
26 | Cc1cccc(N(C)C(=S)Oc2ccc3ccccc3c2)c1 [TOLNAFTATE] | 1

System: Oculimacula yallundae
Assay: Resistance index, ratio of EC50 for sterol 14alpha-demethylation inhibitor-resistant Oculimacula yallundae TriR1 to EC50 for wild type Oculimacula yallundae TriS by germ tube elongation assay
Type: functional
Settings: not given

Row | Compound | Ratio EC50
27 | Cc1cc(C2CC2)nc(Nc2ccccc2)n1 [CYPRODINIL] | 1
28 | CC1=C(C(=O)Nc2ccccc2)SCCO1 [CARBOXIN] | 1
29 | Cc1cc(C)nc(Nc2ccccc2)n1 [PYRIMETHANIL] | 1
30 | CCCOC/C(=N\c1ccc(Cl)cc1C(F)(F)F)n1ccnc1 [TRIFLUMIZOLE] | 214
31 | CC(C)CC(C)c1sccc1NC(=O)c1cn(C)nc1C(F)(F)F (configuration not stated) [PENTHIOPYRAD] | 1
32 | Cc1cccc(N(C)C(=S)Oc2ccc3ccccc3c2)c1 [TOLNAFTATE] | 1.3

System: not listed separately
Assay: Selectivity index, ratio of EC50 for Oculimacula acuformis to EC50 for Oculimacula yallundae in presence of 10 g glucose by mycelial growth inhibition assay
Type: functional
Settings: not given

Row | Compound | Ratio EC50
33 | COC(=O)Nc1nc2ccccc2[nH]1 [CARBENDAZIM] | 1.3
34 | CC(Cc1ccc(C(C)(C)C)cc1)CN1C[C@@H](C)O[C@@H](C)C1 (some centres not stated) [FENPROPIMORPH] | 0.12
35 | Cc1cc(C2CC2)nc(Nc2ccccc2)n1 [CYPRODINIL] | 0.12
36 | CCCOC/C(=N\c1ccc(Cl)cc1C(F)(F)F)n1ccnc1 [TRIFLUMIZOLE] | > 30
37 | CN(C/C=C/C#CC(C)(C)C)Cc1cccc2ccccc12 [TERBINAFINE] | 0.8

System: Oculimacula yallundae
Assay: Fungicidal activity against Oculimacula yallundae assessed as inhibition of mycelial growth in presence of 10 g glucose incubated at 19 degC in dark for 4 weeks
Type: functional, organism-based
Settings: 672 h

Row | Compound | EC50 [µg/mL]
38 | COC(=O)Nc1nc2ccccc2[nH]1 [CARBENDAZIM] | 0.03
39 | CC(Cc1ccc(C(C)(C)C)cc1)CN1C[C@@H](C)O[C@@H](C)C1 (some centres not stated) [FENPROPIMORPH] | 15
40 | Cc1cc(C2CC2)nc(Nc2ccccc2)n1 [CYPRODINIL] | 0.5
41 | CCCOC/C(=N\c1ccc(Cl)cc1C(F)(F)F)n1ccnc1 [TRIFLUMIZOLE] | 0.8
42 | CN(C/C=C/C#CC(C)(C)C)Cc1cccc2ccccc12 [TERBINAFINE] | 0.3

System: Oculimacula acuformis
Assay: Fungicidal activity against Oculimacula acuformis assessed as inhibition of mycelial growth in presence of 10 g glucose incubated at 19 degC in dark for 4 weeks
Type: functional, organism-based
Settings: 672 h

Row | Compound | EC50 [µg/mL]
43 | COC(=O)Nc1nc2ccccc2[nH]1 [CARBENDAZIM] | 0.04
44 | CC(Cc1ccc(C(C)(C)C)cc1)CN1C[C@@H](C)O[C@@H](C)C1 (some centres not stated) [FENPROPIMORPH] | 1.8
45 | Cc1cc(C2CC2)nc(Nc2ccccc2)n1 [CYPRODINIL] | 0.06
46 | CCCOC/C(=N\c1ccc(Cl)cc1C(F)(F)F)n1ccnc1 [TRIFLUMIZOLE] | > 25
47 | CN(C/C=C/C#CC(C)(C)C)Cc1cccc2ccccc12 [TERBINAFINE] | 0.25

System: not listed separately
Assay: Selectivity index, ratio of EC50 for Oculimacula acuformis to EC50 for Oculimacula yallundae by germ tube elongation inhibition assay
Type: functional
Settings: not given

Row | Compound | Ratio EC50
48 | COC(=O)Nc1nc2ccccc2[nH]1 [CARBENDAZIM] | 1
49 | CC(Cc1ccc(C(C)(C)C)cc1)CN1C[C@@H](C)O[C@@H](C)C1 (some centres not stated) [FENPROPIMORPH] | 0.15
50 | Cc1cc(C2CC2)nc(Nc2ccccc2)n1 [CYPRODINIL] | 1
51 | CCCOC/C(=N\c1ccc(Cl)cc1C(F)(F)F)n1ccnc1 [TRIFLUMIZOLE] | 129
52 | CN(C/C=C/C#CC(C)(C)C)Cc1cccc2ccccc12 [TERBINAFINE] | 1.3

System: Oculimacula yallundae
Assay: Fungicidal activity against Oculimacula yallundae assessed as inhibition of germ tube elongation incubated at 19 degC in dark for 48 hr
Type: functional, organism-based
Settings: not given

Row | Compound | EC50 [µg/mL]
53 | COC(=O)Nc1nc2ccccc2[nH]1 [CARBENDAZIM] | 0.04 (≈ 0.209 µM)
54 | CC(Cc1ccc(C(C)(C)C)cc1)CN1C[C@@H](C)O[C@@H](C)C1 (some centres not stated) [FENPROPIMORPH] | 0.4 (≈ 1.32 µM)
55 | Cc1cc(C2CC2)nc(Nc2ccccc2)n1 [CYPRODINIL] | 0.004 (≈ 0.0178 µM)
56 | CC1=C(C(=O)Nc2ccccc2)SCCO1 [CARBOXIN] | 2.5 (≈ 10.6 µM)
57 | Cc1cc(C)nc(Nc2ccccc2)n1 [PYRIMETHANIL] | 0.1 (≈ 0.502 µM)
58 | CCCOC/C(=N\c1ccc(Cl)cc1C(F)(F)F)n1ccnc1 [TRIFLUMIZOLE] | 0.07 (≈ 0.202 µM)
59 | CC(C)CC(C)c1sccc1NC(=O)c1cn(C)nc1C(F)(F)F (configuration not stated) [PENTHIOPYRAD] | 0.02 (≈ 0.0556 µM)
60 | CN(C/C=C/C#CC(C)(C)C)Cc1cccc2ccccc12 [TERBINAFINE] | 0.008 (≈ 0.0275 µM)
61 | Cc1cccc(N(C)C(=S)Oc2ccc3ccccc3c2)c1 [TOLNAFTATE] | 0.3 (≈ 0.976 µM)

System: Oculimacula acuformis
Assay: Fungicidal activity against Oculimacula acuformis assessed as inhibition of germ tube elongation incubated at 19 degC in dark for 48 hr
Type: functional, organism-based
Settings: not given

Row | Compound | EC50 [µg/mL]
62 | COC(=O)Nc1nc2ccccc2[nH]1 [CARBENDAZIM] | 0.04 (≈ 0.209 µM)
63 | CC(Cc1ccc(C(C)(C)C)cc1)CN1C[C@@H](C)O[C@@H](C)C1 (some centres not stated) [FENPROPIMORPH] | 0.06 (≈ 0.198 µM)
64 | Cc1cc(C2CC2)nc(Nc2ccccc2)n1 [CYPRODINIL] | 0.004 (≈ 0.0178 µM)
65 | CCCOC/C(=N\c1ccc(Cl)cc1C(F)(F)F)n1ccnc1 [TRIFLUMIZOLE] | 9 (≈ 26 µM)
66 | CN(C/C=C/C#CC(C)(C)C)Cc1cccc2ccccc12 [TERBINAFINE] | 0.01 (≈ 0.0343 µM)

System: Oculimacula yallundae
Assay: Resistance index, ratio of EC50 for prochloraz-resistant Oculimacula yallundae isolate ProR2 to EC50 for prochloraz-susceptible Oculimacula yallundae isolate ProS by germ tube elongation inhibition assay
Type: functional
Settings: not given

Row | Compound | Ratio EC50
67 | CCCOC/C(=N\c1ccc(Cl)cc1C(F)(F)F)n1ccnc1 [TRIFLUMIZOLE] | 0.8
